The source of these data is US8618153B2, “Hepatitis C virus inhibitors” (Bristol-Myers Squibb Company, priority 2009, dated 2013).

One may read the EC50 as the concentration needed to bring the measured effect to its halfway point.

For one experiment, the system named is HCV 1b genotype. As to the kind of experiment: HCV Replicon assay (HCV-neo replicon cells), 1b genotype. In kind it is cell-based. As to conditions: Hepatitis C virus; HCV 1b genotype replicon; numeric value; read-out: 1b EC50 (in μM or range). As to the method:
An HCV Replicon assay was utilized in the present disclosure, and was prepared, conducted and validated as described in commonly owned PCT/US2006/022197 and in O'Boyle et al., Antimicrob. Agents Chemother., 49(4):1346-1353 (April 2005). Assay methods incorporating luciferase reporters have also been used as described (Apath.com).
HCV-neo replicon cells and replicon cells containing mutations in the NS5A region were used to test the currently described family of compounds. The compounds were determined to have more than 10-fold less inhibitory activity on cells containing mutations than wild-type cells. Thus, the compounds of the present disclosure can be effective in inhibiting the function of the HCV NS5A protein and are understood to be as effective in combinations as previously described in application PCT/US2006/022197 and commonly owned WO 04/014852. Further, the compounds of the present disclosure can be effective against the HCV 1b genotype. It should also be understood that the compounds of the present disclosure can inhibit multiple genotypes of HCV. […] In one embodiment compounds of the present disclosure are inhibitory versus 1a, 1b, 2a, 2b, 3a, 4a, and 5a genotypes. […] The compounds of the present disclosure may inhibit HCV by mechanisms in addition to or other than NS5A inhibition. In one embodiment the compounds of the present disclosure inhibit HCV replicon and in another embodiment the compounds of the present disclosure inhibit NS5A.
Background: In antiviral work, replicon cells carry a viral genome segment that copies itself.
In the case of `COCC[C@H](NC(=O)OC)C(=O)N1CCC[C@H]1c1ncc(-c2cnc(-c3ncc(-c4cnc([C@@H]5CCCN5C(=O)[C@H](CCOC)NC(=O)OC)[nH]4)s3)s2)[nH]1` [Example 15, Methyl ((1S)-3-methoxy-1-(((2S)-2-(4-(5′-(2-((2S)-1-(N-(methoxycarbonyl)-O-methyl-L-homoseryl)-2-pyrrolidinyl)-1H-imidazol-4-yl)-2,2′-bi-1,3-thiazol-5-yl)-1H-imidazol-2-yl)-1-pyrrolidinyl)carbonyl)propyl)carbamate], the EC50 is 0.00238 µM.

Staying with this experiment, now noted: Hepatitis C virus; HCV 1b genotype replicon; value given as range class; read-out: 1b EC50 (in μM or range).
For `COC(=O)N[C@H](C(=O)N1CCC[C@H]1c1nc(/C=C/c2ccc(/C=C/c3cnc([C@@H]4CCCN4C(=O)[C@@H](NC(=O)OC)[C@@H](C)OC)[nH]3)cc2)c[nH]1)[C@@H](C)OC` [Example 39, methyl ((1S,2R)-2-methoxy-1-(((2S)-2-(4-((E)-2-(4-((E)-2-(2-((2S)-1-(N-(methoxycarbonyl)-O-methyl-L-threonyl)-2-pyrrolidinyl)-1H-imidazol-4-yl)vinyl)phenyl)vinyl)-1H-imidazol-2-yl)-1-pyrrolidinyl)carbonyl)propyl)carbamate], the EC50 was less than 0.001 µM. As for `COC(=O)N[C@@H](C(=O)N1CCC[C@H]1c1ncc(-c2cnc(-c3ncc(-c4cnc([C@@H]5CCCN5C(=O)[C@H](NC(=O)OC)c5ccccc5)[nH]4)s3)s2)[nH]1)c1ccccc1` [Example 16, Dimethyl (2,2′-bi-1,3-thiazole-5,5′-diylbis(1H-imidazole-4,2-diyl(2S)-2,1-pyrrolidinediyl((1R)-2-oxo-1-phenyl-2,1-ethanediyl)))biscarbamate], the EC50 was less than 0.001 µM.

Consider `COC(=O)N[C@@H](C(=O)N[C@@H](C)c1ncc(-c2cccc(-c3cnc(-c4c[nH]c([C@@H]5CCCN5C(=O)[C@H](NC(=O)OC)c5ccccc5)n4)o3)c2)[nH]1)c1ccccc1` [Example 23, Methyl ((1R)-2-((2S)-2-(4-(5-(3-(2-((1S)-1-(((2R)-2-((methoxycarbonyl)amino)-2-phenylacetyl)amino)ethyl)-1H-imidazol-4-yl)phenyl)-1,3-oxazol-2-yl)-1H-imidazol-2-yl)-1-pyrrolidinyl)-2-oxo-1-phenylethyl) carbamate], for which the EC50 was 0.001 to 0.01 µM. As for `COCC[C@H](NC(=O)OC)C(=O)N1CCC[C@H]1c1ncc(-c2ccc(-c3ccc(-c4cnc([C@@H]5CCCN5C(=O)[C@H](CCOC)NC(=O)OC)[nH]4)s3)s2)[nH]1` [Example 2, Methyl ((1S)-3-methoxy-1-(((2S)-2-(4-(5′-(2-((2S)-1-(N-(methoxycarbonyl)-O-methyl-L-homoseryl)-2-pyrrolidinyl)-1H-imidazol-4-yl)-2,2′-bithiophen-5-yl)-1H-imidazol-2-yl)-1-pyrrolidinyl)carbonyl)propyl)carbamate], the EC50 was less than 0.001 µM. Take `COC(=O)N[C@@H](C(=O)N1CCC[C@H]1c1ncc(C#CC#Cc2cnc([C@@H]3CCCN3C(=O)[C@H](NC(=O)OC)c3ccccc3)[nH]2)[nH]1)c1ccccc1` [Example 29, Dimethyl (1R,1′R)-2,2′-((2S,2′S)-2,2′-(5,5′-(buta-1,3-diyne-1,4-diyl)bis(1H-imidazole-5,2-diyl))bis(pyrrolidine-2,1-diyl))bis(2-oxo-1-phenylethane-2,1-diyl)dicarbamate]: the EC50 was less than 0.001 µM. Same read-out and setting: the value for `COC(=O)N[C@@H](C(=O)N1CCC[C@H]1c1nc(-c2ncc(-c3cccc(-c4cnc([C@@H]5CCCN5C(=O)[C@H](NC(=O)OC)c5ccccc5)[nH]4)c3)o2)c[nH]1)c1ccccc1` [Example 21, Methyl ((1R)-2-((2S)-2-(4-(3-(2-(2-((2S)-1-((2R)-2-((methoxycarbonyl)amino)-2-phenylacetyl)-2-pyrrolidinyl)-1H-imidazol-4-yl)-1,3-oxazol-5-yl)phenyl)-1H-imidazol-2-yl)-1-pyrrolidinyl)-2-oxo-1-phenylethyl)carbamate] was less than 0.001 µM; that for `CCN(CC)[C@@H](C(=O)N1CCC[C@H]1c1nc(CCc2ccc(CCc3cnc([C@@H]4CCCN4C(=O)[C@@H](c4ccccc4)N(CC)CC)[nH]3)cc2)c[nH]1)c1ccccc1` [Example 40, (1R)-2-((2S)-2-(4-(2-(4-(2-(2-((2S)-1-((2R)-2-(diethylamino)-2-phenylacetyl)-2-pyrrolidinyl)-1H-imidazol-5-yl)ethyl)phenyl)ethyl)-1H-imidazol-2-yl)-1-pyrrolidinyl)-N,N-diethyl-2-oxo-1-phenylethanamine] was less than 0.001 µM; that for `COC(=O)N[C@@H](C)C(=O)N1CCC[C@H]1c1ncc(-c2ccc(-c3ccc(-c4cnc([C@@H]5CCCN5C(=O)[C@H](C)NC(=O)OC)[nH]4)s3)s2)[nH]1` [Example 1, Methyl ((1S)-2-((2S)-2-(4-(5′-(2-((2S)-1-(N-(methoxycarbonyl)-L-alanyl)-2-pyrrolidinyl)-1H-imidazol-4-yl)-2,2′-bithiophen-5-yl)-1H-imidazol-2-yl)-1-pyrrolidinyl)-1-methyl-2-oxoethyl)carbamate] was less than 0.001 µM. With `COC(=O)N[C@@H](C(=O)N1CCC[C@H]1c1ncc(C#Cc2ccc(-c3cnc([C@@H]4CCCN4C(=O)[C@H](NC(=O)OC)c4ccccc4)[nH]3)cc2)[nH]1)c1ccccc1` [Example M1, Methyl ((1R)-2-((2S)-2-(4-(4-((2-((2S)-1-((2R)-2-((methoxycarbonyl)amino)-2-phenylacetyl)-2-pyrrolidinyl)-1H-imidazol-4-yl)ethynyl)phenyl)-1H-imidazol-2-yl)-1-pyrrolidinyl)-2-oxo-1-phenylethyl)carbamate], the EC50 was less than 0.001 µM. In the case of `COC(=O)N[C@@H](C(=O)N1CCC[C@H]1c1ncc(-c2cnc(-c3ncc(-c4cnc([C@@H]5CCCN5C(=O)[C@H](NC(=O)OC)C(C)C)[nH]4)s3)s2)[nH]1)C(C)C` [Example 18], the EC50 was 0.01 to 10 µM. With `COC(=O)N[C@@H](C(=O)N1CCC[C@H]1c1ncc(-c2ccc(-c3ccc(-c4cnc([C@@H]5CCCN5C(=O)[C@H](NC(=O)OC)C(C)C)[nH]4)s3)s2)[nH]1)C(C)C` [Example 3, Methyl ((1R)-1-(((2S)-2-(4-(5′-(2-((2S)-1-((2R)-2-((methoxycarbonyl)amino)-3-methylbutanoyl)-2-pyrrolidinyl)-1H-imidazol-4-yl)-2,2′-bithiophen-5-yl)-1H-imidazol-2-yl)-1-pyrrolidinyl)carbonyl)-2-methylpropyl)carbamate], the EC50 fell in the range of 0.01 to 10 µM. In the case of `COC(=O)N[C@@H](C(=O)N1CCC[C@H]1c1nc(/C=C/c2ccc(/C=C/c3cnc([C@@H]4CCCN4C(=O)[C@H](NC(=O)OC)c4ccccc4)[nH]3)cc2)c[nH]1)c1ccccc1` [Example 36, dimethyl (1,4-phenylenebis((E)-2,1-ethenediyl-1H-imidazole-4,2-diyl(2S)-2,1-pyrrolidinediyl((1R)-2-oxo-1-phenyl-2,1-ethanediyl)))biscarbamate], the EC50 was less than 0.001 µM. As to `COC(=O)N[C@H](C(=O)N1CCC[C@H]1c1ncc(C#CC#Cc2cnc([C@@H]3CCCN3C(=O)[C@@H](NC(=O)OC)C(C)C)[nH]2)[nH]1)C(C)C` [Example 31, Dimethyl (2S,2′S)-1,1′-((2S,2′S)-2,2′-(5,5′-(buta-1,3-diyne-1,4-diyl)bis(1H-imidazole-5,2-diyl))bis(pyrrolidine-2,1-diyl))bis(3-methyl-1-oxobutane-2,1-diyl)dicarbamate], the EC50 is less than 0.001 µM. Same read-out and setting: the figure for `O=C([C@@H](c1ccccc1)N1CCCCC1)N1CCC[C@H]1c1ncc(C#CC#Cc2cnc([C@@H]3CCCN3C(=O)[C@@H](c3ccccc3)N3CCCCC3)[nH]2)[nH]1` [Example 30, (2R,2′R)-1,1′-((2S,2′S)-2,2′-(5,5′-(Buta-1,3-diyne-1,4-diyl)bis(1H-imidazole-5,2-diyl))bis(pyrrolidine-2,1-diyl))bis(2-phenyl-2-(piperidin-1-yl)ethanone)] is less than 0.001 µM; for `CN(C)[C@@H](C(=O)N1CCC[C@H]1c1ncc(-c2ccc(-c3ccc(-c4cnc([C@@H]5CCCN5C(=O)[C@@H](c5ccccc5)N(C)C)[nH]4)s3)s2)[nH]1)c1ccccc1` [Example 5, (1R′,1′R)-2,2′-(2,2′-Bithiene-5,5′-diylbis(1H-imidazole-4,2-diyl(2S)-2,1-pyrrolidinediyl))bis(N,N-dimethyl-2-oxo-1-phenylethanamine)] it is less than 0.001 µM. On to `COC(=O)N[C@H](C(=O)N1CCC[C@H]1c1ncc(C#Cc2ccc(-c3ccc(-c4cnc([C@@H]5CCCN5C(=O)[C@@H](NC(=O)OC)C(C)C)[nH]4)cc3)cc2)[nH]1)C(C)C` [Example 33, Methyl ((1S)-1-(((2S)-2-(4-(4′-((2-((2S)-1-((2S)-2-((methoxycarbonyl)amino)-3-methylbutanoyl)-2-pyrrolidinyl)-1H-imidazol-4-yl)ethynyl)-4-biphenylyl)-1H-imidazol-2-yl)-1-pyrrolidinyl)carbonyl)-2-methylpropyl)carbamate], for which the EC50 is less than 0.001 µM. As to `COC(=O)N[C@@H](C)C(=O)N1CCC[C@H]1c1ncc(C#CC#Cc2cnc([C@@H]3CCCN3C(=O)[C@H](C)NC(=O)OC)[nH]2)[nH]1` [Example 32, Dimethyl (2S,2′S)-1,1′-((2S,2′S)-2,2′-(5,5′-(buta-1,3-diyne-1,4-diyl)bis(1H-imidazole-5,2-diyl))bis(pyrrolidine-2,1-diyl))bis(1-oxopropane-2,1-diyl)dicarbamate], the EC50 lay in the range of 0.01 to 10 µM.
